PubChem BioAssay AID256 (DTP/NCI, 2004)
“And” between values parts separate entries of the source, which are not always exact repeats. Identical values can stand only once. Toxic doses and inconclusive results are not listed.

System: CD2F1 mice, L1210 leukemia ip, survival T/C
Assay: NCI In Vivo Anticancer Drug Screen. Data for tumor model L1210 Leukemia (intraperitoneal) in CD2F1 (CDF1) mice
Conditions: endpoint: mean survival time, higher = longer survival
Summary of the method: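 Compound-dosed mice with transplantable tumor versus matched vehicle controls; endpoint ratio T/C reported.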

[1] = dose: 100.0 mg/kg/injection, schedule: Q04DX003 (ip), vehicle: saline with Tween-80
[2] = dose: 200.0 mg/kg/injection, schedule: Q04DX003 (ip), vehicle: saline with Tween-80
[3] = dose: 400.0 mg/kg/injection, schedule: Q04DX003 (ip), vehicle: saline with Tween-80
[4] = dose: 100.0 mg/kg/injection, schedule: Q04DX002 (ip), vehicle: saline with Tween-80
[5] = dose: 200.0 mg/kg/injection, schedule: Q04DX002 (ip), vehicle: saline with Tween-80
[6] = dose: 400.0 mg/kg/injection, schedule: Q04DX002 (ip), vehicle: saline with Tween-80

[I][Pt+2][I].[NH-]c1cccc(F)c1.[NH-]c1cccc(F)c1
T/C (dose: 3.13 mg/kg/injection, schedule: Q04DX003 (ip), vehicle: distilled water + Tween-80): 102 % of control | T/C (dose: 6.25 mg/kg/injection, schedule: Q04DX003 (ip), vehicle: distilled water + Tween-80): 102 % of control | T/C (dose: 12.5 mg/kg/injection, schedule: Q04DX003 (ip), vehicle: distilled water + Tween-80): 106 % of control | T/C (dose: 25.0 mg/kg/injection, schedule: Q04DX003 (ip), vehicle: distilled water + Tween-80): 106 % of control | T/C (dose: 50.0 mg/kg/injection, schedule: Q04DX003 (ip), vehicle: distilled water + Tween-80): 112 % of control | T/C (dose: 100.0 mg/kg/injection, schedule: Q04DX003 (ip), vehicle: distilled water + Tween-80): 118 % of control

Cc1cc([N+](=O)[O-])c2ccccc2[n+]1[O-]
T/C [1]: 100 % of control

CC[P+]1(c2ccccc2)CCCc2ccc3ccccc3c21 (centres undefined)
T/C (dose: 12.5 mg/kg/injection, schedule: Q04DX003 (ip), vehicle: saline): 117 % of control | T/C (dose: 25.0 mg/kg/injection, schedule: Q04DX003 (ip), vehicle: saline): 110 % of control

CCOC(=O)CCN1C(=O)NC(C)(c2ccccc2)C1=O (centres undefined)
T/C (dose: 100.0 mg/kg/injection, schedule: Q01DX009 (ip), vehicle: Klucel (hydroxypropylcellulose) (HPC)): 100 % of control | T/C (dose: 200.0 mg/kg/injection, schedule: Q01DX009 (ip), vehicle: Klucel (hydroxypropylcellulose) (HPC)): 98 % of control | T/C (dose: 400.0 mg/kg/injection, schedule: Q01DX009 (ip), vehicle: Klucel (hydroxypropylcellulose) (HPC)): 114 % of control

CC(CCc1ccc(S(=O)(=O)Cl)cc1)c1ccc(S(=O)(=O)Cl)cc1 (centres undefined)
T/C (dose: 50.0 mg/kg/injection, schedule: Q01DX009 (ip), vehicle: saline with Tween-80): 106 % of control | T/C (dose: 100.0 mg/kg/injection, schedule: Q01DX009 (ip), vehicle: saline with Tween-80): 95 % of control | T/C (dose: 200.0 mg/kg/injection, schedule: Q01DX009 (ip), vehicle: saline with Tween-80): 91 % of control

Nc1n[nH]c(N)n1
T/C (dose: 3.2 mg/kg/injection, schedule: Q## X008 (iv), vehicle: water): 100 % of control | T/C (dose: 6.3 mg/kg/injection, schedule: Q## X008 (iv), vehicle: water): 103 % of control | T/C (dose: 12.5 mg/kg/injection, schedule: Q## X004 (iv), vehicle: water): 100 % of control | T/C (dose: 12.5 mg/kg/injection, schedule: Q## X008 (iv), vehicle: water): 102 % of control | T/C (dose: 25.0 mg/kg/injection, schedule: Q## X004 (iv), vehicle: water): 104 % of control | T/C (dose: 25.0 mg/kg/injection, schedule: Q## X008 (iv), vehicle: water): 101 % of control | T/C (dose: 50.0 mg/kg/injection, schedule: Q03HX024 (ip), vehicle: saline): 103 % of control | T/C (dose: 50.0 mg/kg/injection, schedule: Q## X004 (iv), vehicle: water): 103 % of control | T/C (dose: 50.0 mg/kg/injection, schedule: Q## X008 (iv), vehicle: water): 103 % of control | T/C (dose: 50.0 mg/kg/injection, schedule: Q## X068 (ip), vehicle: water): 110 % of control | T/C (dose: 50.0 mg/kg/injection, schedule: Q#A X002 (iv), vehicle: water): 106 % of control | T/C (dose: 100.0 mg/kg/injection, schedule: Q01DX007 (ip), vehicle: saline): 113 % of control | T/C (dose: 100.0 mg/kg/injection, schedule: Q01DX009 (ip), vehicle: saline): 104 % of control | T/C (dose: 100.0 mg/kg/injection, schedule: Q03DX003 (ip), vehicle: saline): 105 % of control | T/C (dose: 100.0 mg/kg/injection, schedule: Q03HX024 (ip), vehicle: saline): 117 % of control and 103 % of control and 112 % of control | T/C (dose: 100.0 mg/kg/injection, schedule: Q04DX003 (ip), vehicle: saline): 105 % of control | T/C (dose: 100.0 mg/kg/injection, schedule: Q## X004 (iv), vehicle: water): 105 % of control | T/C (dose: 100.0 mg/kg/injection, schedule: Q## X008 (iv), vehicle: water): 102 % of control | T/C (dose: 100.0 mg/kg/injection, schedule: Q#A X002 (iv), vehicle: water): 96 % of control | T/C (dose: 100.0 mg/kg/injection, schedule: Q#A X034 (ip), vehicle: water): 118 % of control | T/C (dose: 200.0 mg/kg/injection, schedule: Q01DX017 (ip), vehicle: water): 113 % of control | T/C (dose: 200.0 mg/kg/injection, schedule: Q03DX003 (ip), vehicle: saline): 105 % of control | T/C (dose: 200.0 mg/kg/injection, schedule: Q04DX003 (ip), vehicle: saline): 106 % of control | T/C (dose: 200.0 mg/kg/injection, schedule: Q## X004 (iv), vehicle: water): 105 % of control | T/C (dose: 200.0 mg/kg/injection, schedule: Q## X068 (ip), vehicle: water): 190 % of control | T/C (dose: 200.0 mg/kg/injection, schedule: Q#A X002 (iv), vehicle: water): 103 % of control | T/C (dose: 200.0 mg/kg/injection, schedule: Q#A X010 (ip), vehicle: water): 106 % of control | T/C (dose: 400.0 mg/kg/injection, schedule: Q01DX001 (iv), vehicle: water): 104 % of control | T/C (dose: 400.0 mg/kg/injection, schedule: Q03DX003 (ip), vehicle: saline): 113 % of control | T/C (dose: 400.0 mg/kg/injection, schedule: Q03HX024 (ip), vehicle: saline): 203 % of control and 221 % of control and 237 % of control | T/C (dose: 400.0 mg/kg/injection, schedule: Q04DX003 (ip), vehicle: saline): 106 % of control | T/C (dose: 400.0 mg/kg/injection, schedule: Q## X068 (ip), vehicle: water): 116 % of control | T/C (dose: 400.0 mg/kg/injection, schedule: Q#A X002 (iv), vehicle: water): 110 % of control | T/C (dose: 400.0 mg/kg/injection, schedule: Q#A X010 (ip), vehicle: water): 113 % of control | T/C (dose: 400.0 mg/kg/injection, schedule: Q#A X018 (ip), vehicle: water): 203 % of control | T/C (dose: 400.0 mg/kg/injection, schedule: Q#A X034 (ip), vehicle: water): 208 % of control | T/C (dose: 512.0 mg/kg/injection, schedule: Q12HX018 (ip), vehicle: saline): 104 % of control | T/C (dose: 800.0 mg/kg/injection, schedule: Q01DX001 (iv), vehicle: water): 103 % of control | T/C (dose: 800.0 mg/kg/injection, schedule: Q01DX017 (ip), vehicle: water): 150 % of control | T/C (dose: 800.0 mg/kg/injection, schedule: Q#A X002 (iv), vehicle: water): 110 % of control | T/C (dose: 800.0 mg/kg/injection, schedule: Q#A X010 (ip), vehicle: water): 122 % of control | T/C (dose: 800.0 mg/kg/injection, schedule: Q#A X018 (ip), vehicle: water): 181 % of control | T/C (dose: 800.0 mg/kg/injection, schedule: Q#A X034 (ip), vehicle: water): 97 % of control | T/C (dose: 1024.0 mg/kg/injection, schedule: Q12HX018 (ip), vehicle: saline): 120 % of control | T/C (dose: 1600.0 mg/kg/injection, schedule: Q01DX001 (iv), vehicle: water): 105 % of control | T/C (dose: 1600.0 mg/kg/injection, schedule: Q01DX017 (ip), vehicle: water): 165 % of control

Clc1ccc(-c2nnc(-c3ccc(Cl)cc3)nn2)cc1
T/C [1]: 96 % of control | T/C [2]: 90 % of control | T/C [3]: 88 % of control

O=C(Nc1ccccc1)Oc1c(Cl)cc(Cl)c2ccccc12
T/C [4]: 88 % of control | T/C [5]: 88 % of control | T/C [6]: 88 % of control

O=C(NC(=O)c1ccccc1)c1ccccc1
T/C (dose: 100.0 mg/kg/injection, schedule: Q01DX001 (ip), vehicle: Klucel (hydroxypropylcellulose) (HPC)): 101 % of control | T/C [1]: 103 % of control | T/C (dose: 200.0 mg/kg/injection, schedule: Q01DX001 (ip), vehicle: Klucel (hydroxypropylcellulose) (HPC)): 102 % of control | T/C [2]: 102 % of control | T/C (dose: 400.0 mg/kg/injection, schedule: Q01DX001 (ip), vehicle: Klucel (hydroxypropylcellulose) (HPC)): 96 % of control | T/C [3]: 97 % of control

CCC(O)(c1ccccc1)C(O)(CC)c1ccccc1 (centres undefined)
T/C (dose: 50.0 mg/kg/injection, schedule: Q04DX002 (ip), vehicle: saline with Tween-80): 96 % of control | T/C [4]: 86 % of control

COC1=C(C#N)CC2(C)C(CCC3C2CCC2(C)C(C(C)CCCC(C)C)CCC32)C1 (centres undefined)
T/C (dose: 100.0 mg/kg/injection, schedule: Q04DX003 (ip), vehicle: saline sonified): 92 % of control | T/C (dose: 200.0 mg/kg/injection, schedule: Q04DX003 (ip), vehicle: saline sonified): 93 % of control | T/C (dose: 400.0 mg/kg/injection, schedule: Q04DX003 (ip), vehicle: saline sonified): 92 % of control

CCOc1ccccc1OC(=O)Nc1ccccc1OC
T/C [4]: 106 % of control | T/C [5]: 88 % of control | T/C [6]: 100 % of control

CCOC(=O)c1nc2c(n(O)c1=N)CCC/C2=N\O
T/C (dose: 100.0 mg/kg/injection, schedule: Q04DX003 (ip), vehicle: Klucel (hydroxypropylcellulose) (HPC)): 95 % of control | T/C (dose: 200.0 mg/kg/injection, schedule: Q04DX003 (ip), vehicle: Klucel (hydroxypropylcellulose) (HPC)): 102 % of control | T/C (dose: 400.0 mg/kg/injection, schedule: Q04DX003 (ip), vehicle: Klucel (hydroxypropylcellulose) (HPC)): 91 % of control
